Experimental findings from patent US20090081786A1, “Peptide sequences for modulation of protein kinase C” (priority 2006, published 2009) are described below.

For one assay, the system named is annexin V/δ-PKC complex. In words: co-immunoprecipitation of annexin V/δ-PKC complex from CHO cells. The assay is classed as cell-based, hamster. As for the experimental part: The complexes were immunoprecipitated with anti-δ-PKC antibodies and probed for the presence of annexin V at the combined molecular weight of about 110 kD.
CHO-K1 cells (available through the ATCC) were grown in F-12 (HAM) nutrient mixture supplemented with GLUTAMAX, 10% fetal bovine serum, and antibiotics (100 units/ml penicillin and […] streptomycin sulfate, all from Invitrogen Corp.). The cells were cultured at 37° C. under 5% CO2. At 48 hours prior to the study, the cells were serum starved. They were stimulated with 10 nM phorbol 12-myristate 13-acetate (PMA) (available through LC Laboratories) or with 5 mM H2O2 (available through Sigma Chemical Corp.) for the indicated duration ranging from about 30 seconds to about 5 minutes, a technique well-known to one of skill in the art. The cells were washed with cold PBS, and homogenized on ice with trituration in homogenization buffer (20 mM Tris pH 7.4, 2 mM EDTA, 10 mM EGTA, 0.25M sucrose, 12 mM β-mercaptoethanol, protease inhibitor cocktail (available through Sigma Chemical Corp)), 0.1% TRITON X-100, and 1% formaldehyde.
It was observed that the 0.1% TRITON extracts all of the translocatable PKC from the cell. After 30 min at 4° C., the lysates were quenched with 0.14M glycine for 20 min at 4° C., and the samples were spun at 14K rpm at 4° C. The supernatant was incubated with 1 μg anti-δ-PKC antibody (available through Santa Cruz Biotechnology) for 1 hour, followed by exposure to protein-G beads (available through Invitrogen Corp.) for 3 hours at 4° C. The beads were then washed with wash buffer (20 mM Tris pH 7.5, 2 mM EDTA, 100 mM NaCl, 12 mM β-mercaptoethanol, 0.1% TRITON), and separated on 7.5% SDS-PAGE, transferred to nitrocellulose, and probed with anti-annexin V (available through Santa Cruz Biotechnology), followed by visualization using an enhanced chemiluminescence (ECL) method.

The subject of a further assay is ε-PKC. In words: PMA-induced translocation of ε-PKC in CHO cells. The assay is classed as cell-based, hamster. The settings on record: peptide pretreatment. How it is done: (§1) The CHO cells of Example 1 were fractionated, stimulated, and washed with cold PBS, scraped in homogenization buffer, and spun at 100,000 g for 30 min at 4° C., resulting in the soluble fraction. The pellet was then resuspended in a homogenization buffer with 1% TRITON X-100, and spun under the same conditions. Where applicable, the cells were pre-incubated with 1 μM peptide for 15 minutes prior to stimulation. The samples were then analyzed using a Western blot, and the loading was corrected for protein concentration using an internal control such as actin.

The next assay has as its system δ-PKC/annexin V. The experiment in a line: δ-PKC/annexin V binding ELISA assay.
For the next assay, the system named is isolated rat hearts. The experiment in a line: ex vivo model of ischemia and reperfusion in isolated rat hearts. The settings on record: 1 μM. As for the experimental part: FIG. 6C compares the infarct sizes that were measured on both sides of the tissue slices and averaged. […] In FIG. 6D, creatine phosphokinase (CPK) release was measured in the heart perfusate during the reperfusion.

Assay [1] deals with δ-PKC. In words: real-time confocal imaging of YFP-δPKC translocation in CHO cells. The assay is classed as cell-based, hamster. As to conditions: 10 μM pretreatment for 30 minutes, 100 nM PMA, vs untreated. How it is done:
CHO cells were grown on chambered #1 Borosilicate coverglass (Lab-Tek), transfected at 50% confluency using Fugene 6 (Roche), according to the manufacturer's instructions, with CFP-annexin V and YFP-δPKC cloned into the pECFP-C1 and pEYFP-C1 vectors, respectively (Clontech). The cells were serum starved for 24 hours. Real-time confocal imaging was conducted on a spinning disk Nipkow confocal microscope, and the cells were viewed using an inverted Olympus IX70 microscope with a 40× oil immersion Olympus objective (1.35 NA). Images were acquired using a CCD camera (Hamamatsu) with 2×2 pixel binning. […]
Fluorescence intensity was measured using METAMORPH data analysis software (Universal Imaging). To monitor the translocation of the PKC and the increases in FRET signal, a small region of interest was selected from each cell and fluorescence intensity values were graphed against time and normalized to the initial fluorescence. FRET was calculated using a formula that corrects for bleed-through and donor concentration: FRET=(I(442-530)-αI(442-480)-βI(515-530))/I(442-480). The α and β coefficients were calculated from singly transfected cells, where α=I(442-530)/I(442-480)=47.6% of CFP bleed-through into the YFP channel, and β=I(442-530)/I(515-530)=14.4% of YFP excitation from the CFP channel.

In another assay the target is T1, annexin V (Homo sapiens, UniProt P08758).
T1 sequence (P08758 1-320): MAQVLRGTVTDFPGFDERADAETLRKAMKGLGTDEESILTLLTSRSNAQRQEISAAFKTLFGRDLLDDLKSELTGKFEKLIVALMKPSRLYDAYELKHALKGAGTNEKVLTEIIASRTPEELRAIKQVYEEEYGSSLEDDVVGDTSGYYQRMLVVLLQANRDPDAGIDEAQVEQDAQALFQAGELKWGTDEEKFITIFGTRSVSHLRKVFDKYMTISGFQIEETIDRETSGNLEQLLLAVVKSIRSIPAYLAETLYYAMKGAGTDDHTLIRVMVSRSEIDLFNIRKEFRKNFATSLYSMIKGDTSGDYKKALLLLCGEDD
In words: overlay binding assay on immobilized annexin V. The settings on record: immobilized annexin V on nitrocellulose, overlay 37° C. 30 min, Western blotting. How it is done:
A binding assay was performed in vitro, using an immobilized annexin V with the δ-PKC, δ-V1 (SEQ ID NO:18) (the C2 domain of δ-PKC), δ-V5 (SEQ ID NO:19), and ε-V1 (SEQ ID NO:20) peptides. These domains are recognized in the art as participating in protein-protein interactions.
10 μg of the annexin V was separated on 12% SDS-PAGE gel and transferred to nitrocellulose, and then cut into strips. The strips were incubated with blocking buffer (50 mM Tris pH 7.5, 200 mM NaCl, 3% bovine serum albumin, 0.1% PEG20). The strips were then incubated in overlay buffer (50 mM Tris pH 7.5, 200 mM NaCl, 1% PEG20, 12 mM β-mercaptoethanol) in the presence where appropriate of 30 μg crude bacterial cell lysate containing fusion proteins of myelin basic protein (MBP)-delta V1 PKC (MBP-δV1), glutathione-S-transferase-delta V5 PKC (GST-δV5), and full length sequences of δ-PKC or rat purified ε-PKC (SEQ ID NO:21) at 37° C. for 30 min. The strips where then washed with wash buffer (50 mM Tris pH 7.5, 200 mM NaCl, 0.1% PEG20, 12 mM β-mercaptoethanol), and then incubated with fixative (0.2% formaldehyde in PBS) and neutralizing solution (0.2M glycine in PBS) at room temperature 20 min each. After washing with buffer, the strips were probed with antibodies according to the overlay protein, and resulting bands were visualized using ECL Western blotting.

Assay [2] relates to δ-PKC. The experiment in a line: PMA-induced translocation of δ-PKC from soluble to particulate fraction in CHO cells. The assay is classed as cell-based, hamster. As to conditions: 1 μM peptide pretreatment, 5 minutes of PMA stimulation. How it is done: as §1

Consider `OO` [H2O2], for which, in the assay on annexin V/δ-PKC complex (H2O2 5 mM, 0.5-1 minute treatment), the “association between annexin V and δ-PKC” value is listed as “transient association”.

With `CCCCCCCCCCCCCC(=O)O[C@@H]1[C@@H](C)[C@@]2(O)[C@@H](C=C(CO)C[C@]3(O)C(=O)C(C)=C[C@@H]23)[C@@H]2C(C)(C)[C@]12OC(C)=O` [PMA, phorbol 12-myristate 13-acetate], the “increase in the amount of annexin V/δ-PKC complex” value in the assay on annexin V/δ-PKC complex (10 nm PMA, within the first 0.5 minutes of treatment) is around 4 fold.

With “EpAnxV: pAnxV in which the arginine in annexin V was replaced with the glutamate found in δ-PKC (SEQ ID NO:33) (YGRKKRRQRRRCCLQANEDPD; listed as Homo sapiens)”, the “PMA-induced translocation of ε-PKC” value in the assay with ε-PKC is “neither peptide affected”. Also, in the assay on δ-PKC/annexin V, the “δ-PKC/annexin V binding in ELISA” value is “no significant effect”. In the assay with isolated rat hearts (10 minutes prior to 30-minute no-flow ischemia and 10 minutes at onset of 60 minutes reperfusion, TTC staining), the “reduction of infarct size” value was “had no effect”. Besides, the “reduction in necrosis (creatine phosphokinase release in heart perfusate)” value in the assay on isolated rat hearts (CPK measured during reperfusion) is recorded as “did not show any statistical difference from the control heart”. In the assay with isolated rat hearts (isolated rat hearts), the “ischemia-induced δ-PKC-mediated damage to the heart” value is “did not inhibit”.

In the case of `COC(=O)Nc1nc2ccc(C(=O)c3cccs3)cc2[nH]1` [nocodazole], the “translocation profile of overexpressed δ-PKC” value with δ-PKC [1] is reported as “did not alter the translocation profile”.

As for “δ-V5: V5 domain of δ-PKC (SEQ ID NO:19), used as glutathione-S-transferase fusion (PKVKSPSDYSNFDPEFLNEKPQLSFSDKNLIDSMDQEAFHGFSFVNPKFEQFLDI; left off: a dimerising Fc or GST)”, the “binding to annexin V” value in the assay with annexin V was “bind to the annexin V”.

Take “LQANRDPD [pAnxV, annexin V-derived peptide, annexin V residues 157-164, conjugated to TAT47-57 carrier peptide]”: the “δ-PKC/annexin V complex formation (immunoprecipitation)” value in the assay on annexin V/δ-PKC complex (peptide pretreatment) is reported as “blocked”. The “PMA-induced translocation of δ-PKC to the particulate fraction” value with δ-PKC [2] is listed as “blocked”. The “PMA-induced translocation of ε-PKC” value with ε-PKC is on record as “neither peptide affected”. The “δ-PKC/annexin V binding in ELISA” value in the assay with δ-PKC/annexin V was “inhibited”.
